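All cell lines were grown in 96-well plates and treated with compound for 48 hours. GI50: concentration for 50% inhibition of growth. TGI: concentration producing complete growth inhibition.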
What was measured:
Assay in all cases: NCI-60 cell line screen, 48 h
MDA-MB-435 = system: MDA-MB-435
LXFL 529 NSCLC = system: LXFL 529 NSCLC
XF 498 CNS = system: XF 498 CNS
HCT-116 colon = system: HCT-116 colon
MDA-MB-231 breast = system: MDA-MB-231 breast
OVCAR-8 ovarian = system: OVCAR-8 ovarian
MALME-3M melanoma = system: MALME-3M melanoma
RXF 393 renal = system: RXF 393 renal
T-47D breast = system: T-47D breast
HCT-15 colon = system: HCT-15 colon
SN12C renal = system: SN12C renal
HS 578T breast = system: HS 578T breast
786-0 renal = system: 786-0 renal
RPMI-8226 leukemia = system: RPMI-8226 leukemia
A549 NSCLC = system: A549 NSCLC
OVCAR-4 ovarian = system: OVCAR-4 ovarian
SNB-75 CNS = system: SNB-75 CNS
NCI/ADR-RES ovarian = system: NCI/ADR-RES ovarian

## O=C1C=CC=C[C@@H]2C(C3OCCO3)CC[C@H]12.[C-]#[O+].[C-]#[O+].[C-]#[O+].[Fe] (stereo partly specified)
MDA-MB-435
  GI50: 31.3 µM
  TGI: > 100 µM
LXFL 529 NSCLC
  GI50: 15.6 µM
  TGI: 29.4 µM
XF 498 CNS
  GI50: > 100 µM
  TGI: > 100 µM
HCT-116 colon
  GI50: 18.9 µM
  TGI: 41.5 µM
MDA-MB-231 breast
  GI50: > 100 µM
  TGI: > 100 µM
OVCAR-8 ovarian
  GI50: 24.8 µM
  TGI: 65.1 µM
MALME-3M melanoma
  GI50: 27.9 µM
  TGI: 62.3 µM
RXF 393 renal
  GI50: 23.4 µM
  TGI: 67 µM
T-47D breast
  GI50: > 100 µM
  TGI: > 100 µM
HCT-15 colon
  GI50: 55.7 µM
  TGI: > 95.4 µM
SN12C renal
  GI50: 76.3 µM
  TGI: > 100 µM
HS 578T breast
  GI50: > 100 µM
  TGI: > 100 µM
786-0 renal
  GI50: > 69.3 µM
  TGI: > 100 µM
RPMI-8226 leukemia
  GI50: 26.8 µM
  TGI: > 82.4 µM
A549 NSCLC
  GI50: > 100 µM
  TGI: > 100 µM
OVCAR-4 ovarian
  GI50: > 47.9 µM
  TGI: > 71.9 µM
SNB-75 CNS
  GI50: > 100 µM
  TGI: > 100 µM
NCI/ADR-RES ovarian
  GI50: > 100 µM
  TGI: > 100 µM

Source: PubChem BioAssay (NCI)
